Assay results reported in patent US20230024302A1, “2,3,5-TRISUBSTITUTED PYRAZOLO[1,5-A]PYRIMIDINE COMPOUNDS” (Arcus Biosciences, Inc., priority 2019, published 2023).
pIC50: −log10 of the molar value.

Legend:
[1] = molecular target: T1, PI3Kγ (p120γ) (Homo sapiens, UniProt P48736); assay: Inhibition of PI3K kinase activity (ADP Glo), PI3Kγ; conditions: Table 1, p120γ, read-out: biochemical potency (PI3Kγ IC50)
T1 construct: purchased Promega V1761
Description: Compounds were evaluated to determine the potency with which they inhibited the kinase activity of the Class I PI3K subunits p110α/p85α (Promega, Cat #V1721), p110β/p85α (Promega, Cat #V1751), p120γ (Promega, Cat #V1761) and p110δ/p85α (Promega, Cat #V1771). Activity was determined as a function of ADP (adenosine diphosphate) generated from ATP consumed during the phosphorylation of Phosphatidylinositol 4,5-bisphosphate (PIP2) (Promega, Cat #V1701) to yield Phosphatidylinositol (3,4,5)-trisphosphate (PIP3). ADP levels in the assay mixture at the end of the reaction were quantitated using ADP Glo (Promega, Cat #V9103) according to the manufacturer's recommended protocol.
Enzyme was prepared for each of the PI3K subunits in 100 mM HEPES, pH 7.4, 100 mM NaCl, 6 mM MgCl2 and 0.05% BSA. p110α/p85α was prepared at 2 nM (2×), p110β/p85α was prepared at 7 nM (2×), p120γ was prepared at 8 nM (2×) and p110δ/p85α was prepared at 2 nM (2×). Five microliters of 2× enzyme dilution of each PI3K subunit were added to a 384-well white Opti-plates pre-dispensed with compound and allowed to incubate for 1 h at rt. A substrate mix containing 0.1 mg/ml (2×) of PIP2 and 50 μM (2×) ATP (Promega, Cat #V915) was prepared in 25 mM HEPES and 0.5 mM EGTA. Reactions were initiated by addition of 5 μl of 2× substrate mix to each well of the plates containing various PI3K isoforms and allowed to proceed for 60 min at rt. Ten microliters of ADP Glo reagent 1 were added to the wells of each plate and allowed to incubate at rt for 45 min according to the manufacturer's directions. Following incubation, 20 μl of ADP Glo reagent 2 was added to each plate and allowed to incubate for an additional 45 min. Luminescent signal, generated by ADP Glo, was quantified by reading on a Perkin Elmer Envision multimode reader. Compound potencies (IC50's) were determined using a standard 4-parameter fit non-linear regression fit.

[2] = molecular target: T2, PI3Kγ (Homo sapiens, UniProt P48736); assay: PI3Kγ cellular assay in THP-1 cells (AKT pS473 AlphaLISA); type: cell-based; conditions: Table 1, rhMCP-1 stimulated AKT pS473, read-out: cellular potency (PI3Kγ IC50)
T2 construct: host or cells: THP-1
T2 sequence (P48736 whole entry): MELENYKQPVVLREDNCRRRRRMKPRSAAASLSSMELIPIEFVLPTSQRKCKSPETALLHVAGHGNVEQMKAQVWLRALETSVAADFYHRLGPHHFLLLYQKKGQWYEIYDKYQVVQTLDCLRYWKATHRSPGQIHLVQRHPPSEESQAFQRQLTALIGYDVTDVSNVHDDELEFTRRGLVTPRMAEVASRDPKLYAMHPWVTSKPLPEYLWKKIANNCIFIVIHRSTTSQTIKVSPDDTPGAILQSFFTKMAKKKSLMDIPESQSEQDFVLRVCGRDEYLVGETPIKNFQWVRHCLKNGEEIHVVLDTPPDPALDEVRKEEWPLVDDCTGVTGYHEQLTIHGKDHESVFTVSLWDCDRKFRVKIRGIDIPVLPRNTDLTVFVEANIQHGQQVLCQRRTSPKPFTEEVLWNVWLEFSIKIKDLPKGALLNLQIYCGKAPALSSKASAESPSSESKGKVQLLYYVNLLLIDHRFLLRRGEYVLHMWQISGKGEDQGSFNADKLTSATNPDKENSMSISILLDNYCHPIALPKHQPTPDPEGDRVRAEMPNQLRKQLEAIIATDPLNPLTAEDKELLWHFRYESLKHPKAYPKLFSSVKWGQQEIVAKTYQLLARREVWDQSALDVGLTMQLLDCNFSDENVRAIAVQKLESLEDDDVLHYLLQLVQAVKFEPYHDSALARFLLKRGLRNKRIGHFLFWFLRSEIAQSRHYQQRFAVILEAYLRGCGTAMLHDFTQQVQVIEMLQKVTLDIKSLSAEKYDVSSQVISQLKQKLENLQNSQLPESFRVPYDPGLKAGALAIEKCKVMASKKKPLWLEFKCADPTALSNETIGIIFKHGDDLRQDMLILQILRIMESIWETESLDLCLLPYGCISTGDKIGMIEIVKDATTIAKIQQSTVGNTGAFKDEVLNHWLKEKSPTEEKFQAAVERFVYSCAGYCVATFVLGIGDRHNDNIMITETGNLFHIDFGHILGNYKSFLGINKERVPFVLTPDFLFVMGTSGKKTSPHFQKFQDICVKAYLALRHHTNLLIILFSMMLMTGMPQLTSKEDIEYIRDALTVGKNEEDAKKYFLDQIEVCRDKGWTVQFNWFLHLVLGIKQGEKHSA
Description: Twenty microliters of serum starved THP-1 cells were added to the compound plate in serum free DMEM at a density of 9×10^6 cells per ml. Final assay conditions comprised 1.8×10^5 THP-1 cells per well with test compounds in 2% DMSO across a concentration range from 4 nM to 30 μM. […] Briefly, 10 μL of 4× lysis buffer was added to cells after stimulation. Following 60 min incubation at rt, 10 μL of cell lysate was transferred to a fresh 384-well Opti-plate to which 5 μL of AlphaLisa acceptor beads and 5 μL of AlphaLisa donor beads had been added. […] PI3Kγ activity was evaluated as a correlate of endogenous AKT phosphorylation levels. Percentage maximum activity in each test well was calculated based on DMSO (100% activity) and positive control treated cell wells (0% activity). The potencies (IC50's) of test compounds were determined using a standard 4-parameter fit non-linear regression fit.

T1 sequence (P48736 whole entry): as above

Compound	pIC50 [1]	pIC50 [2]
C[C@@H](C1CC1)N1Cc2cc(-c3ccn4nc(N)c(C(=O)NC5COC5)c4n3)cc(OC(F)(F)F)c2C1=O [Example 21, 2-Amino-5-{2-[(1S)-1-cyclopropylethyl]-1-oxo-7-(trifluoromethoxy)-2,3-dihydro-1H-isoindol-5-yl}-N-(oxetan-3-yl)pyrazolo[1,5-a]pyrimidine-3-carboxamide]	> 7.00	> 7.00
C[C@H](CO)NC(=O)c1c(N)nn2ccc(-c3cc4c(c(OC(F)(F)F)c3)C(=O)N([C@@H](C)C3CC3)C4)nc12 [Example 22, 2-Amino-5-{2-[(1S)-1-cyclopropylethyl]-1-oxo-7-(trifluoromethoxy)-2,3-dihydro-1H-isoindol-5-yl}-N-[(2R)-1-hydroxypropan-2-yl]pyrazolo[1,5-a]pyrimidine-3-carboxamide]	> 7.00	> 7.00
C[C@@H](C1CC1)N1Cc2cc(-c3ccn4nc(N)c(C(=O)N[C@H]5CC[C@@](C)(O)CC5)c4n3)cc(OC(F)(F)F)c2C1=O [Example 24, 2-Amino-5-{2-[(1S)-1-cyclopropylethyl]-1-oxo-7-(trifluoromethoxy)-2,3-dihydro-1H-isoindol-5-yl}-N-[cis-4-hydroxy-4-methylcyclohexyl]pyrazolo[1,5-a]pyrimidine-3-carboxamide]	> 7.00	> 7.00
CC(C)[C@H](CO)NC(=O)c1c(N)nn2ccc(-c3cc4c(c(OC(F)(F)F)c3)C(=O)N([C@@H](C)C3CC3)C4)nc12 [Example 25, 2-Amino-5-{2-[(1S)-1-cyclopropylethyl]-1-oxo-7-(trifluoromethoxy)-2,3-dihydro-1H-isoindol-5-yl}-N-[(2R)-1-hydroxy-3-methylbutan-2-yl]pyrazolo[1,5-a]pyrimidine-3-carboxamide]	> 7.00	> 7.00
C[C@H](CO)NC(=O)c1c(N)nn2ccc(-c3cc4c(c(OC(F)(F)F)c3)C(=O)N([C@@H](C)C(F)(F)F)C4)nc12 [Example 27, 2-Amino-N-[(2R)-1-hydroxypropan-2-yl]-5-[1-oxo-7-(trifluoromethoxy)-2-[(2S)-1,1,1-trifluoropropan-2-yl]-2,3-dihydro-1H-isoindol-5-yl]pyrazolo[1,5-a]pyrimidine-3-carboxamide]	> 7.00	> 7.00
C[C@@H](C1CC1)N1Cc2cc(-c3ccn4nc(N)c(C(=O)N[C@H]5CNC(=O)C5)c4n3)cc(OC(F)(F)F)c2C1=O [Example 28, 2-Amino-5-{2-[(1S)-1-cyclopropylethyl]-1-oxo-7-(trifluoromethoxy)-2,3-dihydro-1H-isoindol-5-yl}-N-[(3R)-5-oxopyrrolidin-3-yl]pyrazolo[1,5-a]pyrimidine-3-carboxamide]	> 7.00	> 7.00
C[C@@H](C1CC1)N1Cc2cc(-c3ccn4nc(N)c(C(=O)N[C@H]5CCC[C@@H](O)C5)c4n3)cc(OC(F)(F)F)c2C1=O [Example 29, 2-Amino-5-{2-[(1S)-1-cyclopropylethyl]-1-oxo-7-(trifluoromethoxy)-2,3-dihydro-1H-isoindol-5-yl}-N-[(1S,3R)-3-hydroxycyclohexyl]pyrazolo[1,5-a]pyrimidine-3-carboxamide]	> 7.00	> 7.00
C[C@@H](C1CC1)N1Cc2cc(-c3ccn4nc(N)c(C(=O)N[C@H]5CC[C@H](N)CC5)c4n3)cc(OC(F)(F)F)c2C1=O [Example 31, 2-Amino-5-{2-[(1S)-1-cyclopropylethyl]-1-oxo-7-(trifluoromethoxy)-2,3-dihydro-1H-isoindol-5-yl}-N-[trans-4-aminocyclohexyl]pyrazolo[1,5-a]pyrimidine-3-carboxamide]	> 7.00	> 7.00
C[C@@H](C1CC1)N1Cc2cc(-c3ccn4nc(N)c(C(=O)N[C@@H]5CCC[C@H](N)C5)c4n3)cc(OC(F)(F)F)c2C1=O [Example 33, 2-Amino-N-[(1R,3S)-3-aminocyclohexyl]-5-{2-[(1S)-1-cyclopropylethyl]-1-oxo-7-(trifluoromethoxy)-2,3-dihydro-1H-isoindol-5-yl}pyrazolo[1,5-a]pyrimidine-3-carboxamide]	> 7.00	> 7.00
C[C@@H](C1CC1)N1Cc2cc(-c3ccn4nc(N)c(C(=O)N[C@@H]5CCC[C@H]5O)c4n3)cc(OC(F)(F)F)c2C1=O [Example 35, 2-Amino-5-{2-[(1S)-1-cyclopropylethyl]-1-oxo-7-(trifluoromethoxy)-2,3-dihydro-1H-isoindol-5-yl}-N-[(1R,2R)-2-hydroxycyclopentyl]pyrazolo[1,5-a]pyrimidine-3-carboxamide]	> 7.00	> 7.00
C[C@@H](C1CC1)N1Cc2cc(-c3ccn4nc(N)c(C(=O)N[C@@H]5CC[C@@H](O)C5)c4n3)cc(OC(F)(F)F)c2C1=O [Example 37, 2-Amino-5-{2-[(1S)-1-cyclopropylethyl]-1-oxo-7-(trifluoromethoxy)-2,3-dihydro-1H-isoindol-5-yl}-N-[(1R,3R)-3-hydroxycyclopentyl]pyrazolo[1,5-a]pyrimidine-3-carboxamide]	> 7.00	> 7.00

More lines, now with the values ahead:

pIC50 [1]	pIC50 [2]	Compound
> 7.00	> 7.00	C[C@@H](C1CC1)N1Cc2cc(-c3ccn4nc(N)c(C(=O)N[C@H]5C[C@@](C)(O)C5)c4n3)cc(OC(F)(F)F)c2C1=O [Example 23, 2-Amino-5-{2-[(1S)-1-cyclopropylethyl]-1-oxo-7-(trifluoromethoxy)-2,3-dihydro-1H-isoindol-5-yl}-N-[cis-3-hydroxy-3-methylcyclobutyl]pyrazolo[1,5-a]pyrimidine-3-carboxamide]
> 7.00	> 7.00	C[C@@H](C1CC1)N1Cc2cc(-c3ccn4nc(N)c(C(=O)N[C@@H](CO)C5CC5)c4n3)cc(OC(F)(F)F)c2C1=O [Example 26, 2-Amino-N-[(1R)-1-cyclopropyl-2-hydroxyethyl]-5-{2-[(1S)-1-cyclopropylethyl]-1-oxo-7-(trifluoromethoxy)-2,3-dihydro-1H-isoindol-5-yl}pyrazolo[1,5-a]pyrimidine-3-carboxamide]
> 7.00	> 7.00	C[C@@H](C1CC1)N1Cc2cc(-c3ccn4nc(N)c(C(=O)N[C@H]5CC[C@H](C6(O)CC6)CC5)c4n3)cc(OC(F)(F)F)c2C1=O [Example 30, 2-Amino-5-(2-((S)-1-cyclopropylethyl)-1-oxo-7-(trifluoromethoxy)isoindolin-5-yl)-N-(trans-4-(1-hydroxycyclopropyl)cyclohexyl)pyrazolo[1,5-a]pyrimidine-3-carboxamide]
> 7.00	> 7.00	C[C@@H](C1CC1)N1Cc2cc(-c3ccn4nc(N)c(C(=O)N[C@H]5CCNC5=O)c4n3)cc(OC(F)(F)F)c2C1=O [Example 32, 2-Amino-5-{2-[(1S)-1-cyclopropylethyl]-1-oxo-7-(trifluoromethoxy)-2,3-dihydro-1H-isoindol-5-yl}-N-[(3S)-2-oxopyrrolidin-3-yl]pyrazolo[1,5-a]pyrimidine-3-carboxamide]
> 7.00	> 7.00	C[C@@H](C1CC1)N1Cc2cc(-c3ccn4nc(N)c(C(=O)N[C@@H]5CCC[C@H](N(C)C)C5)c4n3)cc(OC(F)(F)F)c2C1=O [Example 34, 2-Amino-5-{2-[(1S)-1-cyclopropylethyl]-1-oxo-7-(trifluoromethoxy)-2,3-dihydro-1H-isoindol-5-yl}-N-[(1R,3S)-3-(dimethylamino)cyclohexyl]pyrazolo[1,5-a]pyrimidine-3-carboxamide]
> 7.00	> 7.00	C[C@@H](C1CC1)N1Cc2cc(-c3ccn4nc(N)c(C(=O)N[C@H]5CC[C@H](O)C5)c4n3)cc(OC(F)(F)F)c2C1=O [Example 36, 2-Amino-5-{2-[(1S)-1-cyclopropylethyl]-1-oxo-7-(trifluoromethoxy)-2,3-dihydro-1H-isoindol-5-yl}-N-[(1S,3S)-3-hydroxycyclopentyl]pyrazolo[1,5-a]pyrimidine-3-carboxamide]
